Results from PubChem BioAssay AID248 (DTP/NCI, 2004).
“And” between values parts separate entries of the source, which are not always exact repeats. Identical values can stand only once. Toxic doses and inconclusive results are not listed. Rule as the data show it: active = T/C of 150% or more; inactive = T/C below 125%. Square brackets hold non-standard residues; d marks the D form. Peptide text beside a SMILES is read from it. ξ: configuration not given here. ξF = NC(Cc1ccccc1)C(=O)O

Tested on: L1210 leukemia ip in BDF1 mice, survival T/C
Experiment: NCI In Vivo Anticancer Drug Screen. Data for tumor model L1210 Leukemia (intraperitoneal) in B6D2F1 (BDF1) mice
Conditions: endpoint: mean survival time, higher = longer survival
Procedure, shortened: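 Transplantable tumor model; survival measured in treated vs vehicle control mice. Value = treated/control.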

[1] = dose: 100.0 mg/kg/injection, schedule: Q01DX001 (ip), vehicle: carboxymethylcellulose (CMC)
[2] = dose: 100.0 mg/kg/injection, schedule: Q01DX009 (ip), vehicle: saline
[3] = dose: 200.0 mg/kg/injection, schedule: Q01DX001 (ip), vehicle: carboxymethylcellulose (CMC)
[4] = dose: 100.0 mg/kg/injection, schedule: Q04DX003 (ip), vehicle: saline with Tween-80
[5] = dose: 200.0 mg/kg/injection, schedule: Q04DX003 (ip), vehicle: saline with Tween-80
[6] = dose: 400.0 mg/kg/injection, schedule: Q04DX003 (ip), vehicle: saline with Tween-80
[7] = dose: 100.0 mg/kg/injection, schedule: Q04DX003 (ip), vehicle: Klucel (hydroxypropylcellulose) (HPC)
[8] = dose: 200.0 mg/kg/injection, schedule: Q04DX003 (ip), vehicle: Klucel (hydroxypropylcellulose) (HPC)
[9] = dose: 400.0 mg/kg/injection, schedule: Q04DX003 (ip), vehicle: Klucel (hydroxypropylcellulose) (HPC)
[10] = dose: 75.0 mg/kg/injection, schedule: Q01DX001 (ip), vehicle: other
[11] = dose: 150.0 mg/kg/injection, schedule: Q01DX001 (ip), vehicle: other
[12] = dose: 300.0 mg/kg/injection, schedule: Q01DX001 (ip), vehicle: other
[13] = dose: 100.0 mg/kg/injection, schedule: Q01DX009 (ip), vehicle: Klucel (hydroxypropylcellulose) (HPC)
[14] = dose: 200.0 mg/kg/injection, schedule: Q01DX009 (ip), vehicle: Klucel (hydroxypropylcellulose) (HPC)
[15] = dose: 400.0 mg/kg/injection, schedule: Q01DX009 (ip), vehicle: Klucel (hydroxypropylcellulose) (HPC)
[16] = dose: 100.0 mg/kg/injection, schedule: Q04DX002 (ip), vehicle: Klucel (hydroxypropylcellulose) (HPC)
[17] = dose: 200.0 mg/kg/injection, schedule: Q04DX002 (ip), vehicle: Klucel (hydroxypropylcellulose) (HPC)
[18] = dose: 100.0 mg/kg/injection, schedule: Q04DX003 (ip), vehicle: saline
[19] = dose: 200.0 mg/kg/injection, schedule: Q04DX003 (ip), vehicle: saline
[20] = dose: 400.0 mg/kg/injection, schedule: Q04DX003 (ip), vehicle: saline
[21] = dose: 100.0 mg/kg/injection, schedule: Q01DX009 (ip), vehicle: saline with Tween-80
[22] = dose: 200.0 mg/kg/injection, schedule: Q01DX009 (ip), vehicle: saline with Tween-80
[23] = dose: 100.0 mg/kg/injection, schedule: Q01DX009 (ip), vehicle: saline sonified
[24] = dose: 100.0 mg/kg/injection, schedule: Q04DX003 (ip), vehicle: saline sonified
[25] = dose: 200.0 mg/kg/injection, schedule: Q01DX009 (ip), vehicle: saline sonified
[26] = dose: 200.0 mg/kg/injection, schedule: Q04DX003 (ip), vehicle: saline sonified
[27] = dose: 400.0 mg/kg/injection, schedule: Q01DX009 (ip), vehicle: saline sonified
[28] = dose: 400.0 mg/kg/injection, schedule: Q04DX003 (ip), vehicle: saline sonified
[29] = dose: 50.0 mg/kg/injection, schedule: Q01DX001 (ip), vehicle: carboxymethylcellulose (CMC)
[30] = dose: 400.0 mg/kg/injection, schedule: Q01DX001 (ip), vehicle: carboxymethylcellulose (CMC)
[31] = dose: 50.0 mg/kg/injection, schedule: Q01DX009 (ip), vehicle: saline with Tween-80

Measured: T/C

O=C1/C(=N/O)CCc2ccccc21
inactive: dose: 50.0 mg/kg/injection, schedule: Q01DX009 (ip), vehicle: saline 102 % of control | [1] 103 % of control | [2] 103 % of control | [3] 97 % of control

Nc1ncc(CCCOc2ccccc2)c(=O)[nH]1
inactive: [4] 96 % of control | [5] 98 % of control | [6] 93 % of control

C[Si](C)(CCCC(N)C(=O)O)O[Si](C)(C)CCCC(N)C(=O)O (stereo not drawn)
inactive: [7] 98 % of control | [8] 100 % of control | [9] 98 % of control

COC1OC(COC(=O)OCC(Cl)(Cl)Cl)C(OC(=O)OCC(Cl)(Cl)Cl)C(OC(=O)OCC(Cl)(Cl)Cl)C1OC(=O)OCC(Cl)(Cl)Cl (stereo not drawn)
inactive: [10] 90 % of control | [11] 92 % of control | [12] 90 % of control

Nc1cccc2c1C(=O)c1cccc(NC(=O)c3ccccc3)c1C2=O
inactive: dose: 6.25 mg/kg/injection, schedule: Q01DX009 (ip), vehicle: Klucel (hydroxypropylcellulose) (HPC) 89 % of control | dose: 12.5 mg/kg/injection, schedule: Q01DX009 (ip), vehicle: Klucel (hydroxypropylcellulose) (HPC) 92 % of control | dose: 25.0 mg/kg/injection, schedule: Q01DX009 (ip), vehicle: Klucel (hydroxypropylcellulose) (HPC) 89 % of control | dose: 50.0 mg/kg/injection, schedule: Q01DX009 (ip), vehicle: Klucel (hydroxypropylcellulose) (HPC) 108 % of control | [13] 95 % of control | [7] 96 % of control | [14] 95 % of control | [8] 91 % of control | [15] 99 % of control | [9] 90 % of control

CC(COC(=O)c1ccccc1)NC1CCCC1 (stereo not drawn)
inactive: [10] 96 % of control | [11] 108 % of control | [12] 107 % of control

O=C1OC(c2ccccc2)=N/C1=C\c1cccnc1
inactive: dose: 50.0 mg/kg/injection, schedule: Q04DX002 (ip), vehicle: Klucel (hydroxypropylcellulose) (HPC) 90 % of control | [16] 96 % of control | [17] 86 % of control | dose: 400.0 mg/kg/injection, schedule: Q04DX002 (ip), vehicle: Klucel (hydroxypropylcellulose) (HPC) 86 % of control

Nn1cn[nH]c1=S
inactive: [18] 98 % of control | [19] 103 % of control | [20] 98 % of control

O=C(Nc1ccc(Cl)cc1)c1cccnc1
inactive: [21] 95 % of control | [4] 96 % of control | [22] 97 % of control | [5] 98 % of control | [6] 91 % of control

NCC(=O)NCC(=O)NC(Cc1ccccc1)C(=O)O (stereo not drawn) (H-Gly-Gly-[ξF]-OH)
inactive: [2] 109 % of control | [18] 110 % of control | dose: 200.0 mg/kg/injection, schedule: Q01DX009 (ip), vehicle: saline 107 % of control | [19] 100 % of control | dose: 400.0 mg/kg/injection, schedule: Q01DX009 (ip), vehicle: saline 101 % of control | [20] 101 % of control

CC1(C)SC(N=C=Nc2ccccc2)CN1C=O (stereo not drawn)
inactive: [10] 96 % of control | [11] 86 % of control | [12] 93 % of control

CCOC(=O)CCC(C)(C#N)C(C#N)C(=O)OCC (stereo not drawn)
inactive: [23] 97 % of control | [24] 108 % of control | [25] 110 % of control | [26] 97 % of control | [27] 100 % of control | [28] 98 % of control

IC#Cc1ccccc1
inactive: dose: 100.0 mg/kg/injection, schedule: Q01DX001 (ip), vehicle: saline with Tween-80 112 % of control | dose: 200.0 mg/kg/injection, schedule: Q01DX001 (ip), vehicle: saline with Tween-80 105 % of control | dose: 400.0 mg/kg/injection, schedule: Q01DX001 (ip), vehicle: saline with Tween-80 105 % of control

O=[N+]([O-])c1ccc(CSCc2ccccc2)cc1
inactive: [29] 102 % of control | [1] 102 % of control | [3] 109 % of control | [30] 98 % of control

COC(=O)c1cc(C)c(Br)c(OC)c1
inactive: [13] 98 % of control | [7] 94 % of control | [14] 100 % of control | [8] 111 % of control | [9] 100 % of control

Cn1nc(Br)c(=O)n(C(c2ccccc2)c2ccccc2)c1=O
active: dose: 200.0 mg/kg/injection, schedule: Q01DX001 (ip), vehicle: other 154 % of control | dose: 400.0 mg/kg/injection, schedule: Q01DX001 (ip), vehicle: other 154 % of control
inactive: dose: 22.0 mg/kg/injection, schedule: Q01DX015 (ip), vehicle: other 110 % of control | dose: 33.0 mg/kg/injection, schedule: Q01DX015 (ip), vehicle: other 103 % of control | dose: 44.0 mg/kg/injection, schedule: Q01DX001 (ip), vehicle: other 100 % of control | dose: 50.0 mg/kg/injection, schedule: Q01DX015 (ip), vehicle: other 103 % of control | dose: 66.0 mg/kg/injection, schedule: Q01DX001 (ip), vehicle: other 102 % of control and 108 % of control | dose: 75.0 mg/kg/injection, schedule: Q01DX015 (ip), vehicle: other 106 % of control | [11] 100 % of control and 104 % of control

COc1cc2c(cc1OC)C(=O)Cc1ccc3c(c1CN(C)CC2)OCO3
inactive: [13] 95 % of control | [14] 95 % of control

CCCC#CCOCC(O)CCl (stereo not drawn)
inactive: [23] 105 % of control | [24] 91 % of control | [25] 101 % of control | [26] 94 % of control | [27] 105 % of control | [28] 94 % of control

COc1ccc(/C=N/NC(=O)c2ccccc2Cl)cc1OC
inactive: [31] 102 % of control | [21] 91 % of control | [22] 88 % of control

CCOC(=O)c1cc([N+](=O)[O-])oc1C
inactive: [13] 102 % of control | [7] 98 % of control | [14] 102 % of control | [8] 94 % of control | [15] 112 % of control | [9] 100 % of control

CCOC(=O)C(C)(CCOCc1ccccc1)NC(C)=O (stereo not drawn)
inactive: [29] 94 % of control | [1] 96 % of control | [3] 100 % of control | [30] 91 % of control

CCOC(=O)c1ccc(NC(=O)CCl)cc1
inactive: dose: 25.0 mg/kg/injection, schedule: Q01DX015 (ip), vehicle: saline 98 % of control | dose: 50.0 mg/kg/injection, schedule: Q01DX001 (ip), vehicle: saline 106 % of control | dose: 50.0 mg/kg/injection, schedule: Q01DX015 (ip), vehicle: saline 100 % of control | dose: 100.0 mg/kg/injection, schedule: Q01DX001 (ip), vehicle: saline 104 % of control | dose: 100.0 mg/kg/injection, schedule: Q01DX015 (ip), vehicle: saline 98 % of control | dose: 200.0 mg/kg/injection, schedule: Q01DX001 (ip), vehicle: saline 101 % of control | dose: 400.0 mg/kg/injection, schedule: Q01DX001 (ip), vehicle: saline 97 % of control

C=CCCCCCCCCC(=O)NCc1ccncc1
inactive: [4] 90 % of control

C/[N+]([O-])=N\Nc1c(Cl)cc(Cl)cc1Cl
inactive: [31] 94 % of control | [21] 105 % of control | [22] 102 % of control

O=C(O)COc1ccc(Cl)cc1I
inactive: [16] 120 % of control | [17] 97 % of control
